The conditions of data set [1]: 80 mg/kg PO; for Clinical observation (tolerability): beagle dogs; for plasma concentration of the analog itself: LLOQ 3.0 ng/mL; for Tlast: COMPOUND C (parent) in plasma.
The next data set in a line: Enzyme and uptake assays. The data set is classed as biochemical. The note with it: human recombinant; [3H]NE incorporation into cells; read-out: IC50, Norepinephrine transporter uptake (h). How it is done:
A study was conducted to test 5 compounds in cellular and nuclear receptor functional and enzyme and uptake assays.
The results are expressed as a percent of control specific activity
and as a percent inhibition of control specific activity
The IC50 values (concentration causing a half-maximal inhibition of control specific activity), EC50 values (concentration producing a half-maximal increase in control basal activity), and Hill coefficients (nH) were determined by non-linear regression analysis of the inhibition/concentration-response curves generated with mean replicate values using Hill equation curve fitting
where Y=specific activity, A=left asymptote of the curve, D=right asymptote of the curve, C=compound concentration, C50=IC50 or EC50, and nH=slope factor. This analysis was performed using software developed at Cerep (Hill software) and validated by comparison with data generated by the commercial software SigmaPlot® 4.0 for Windows® (© 1997 by SPSS Inc.).
In Vitro Pharmacology. Results showing an inhibition (or stimulation for assays run in basal conditions) higher than 50% were considered to represent significant effects of the test compounds. Results showing an inhibition (or stimulation) between 25% and 50% are indicative of weak to moderate effects. Results showing an inhibition (or stimulation) lower than 25% were not considered significant and mostly attributable to variability of the signal around the control level. […]

The nature of data set [2]: In vitro stability in human plasma. The format is in vitro ADME. To be noted: for half-life at 2 μM / % Remaining / Analyte Peak area/IS Peak area Mean (N = 2): human plasma, 2.0 μM; for % Remaining at 60 min (Mean): Human plasma, final concentration 2 μM. How it is done: Test Article Solutions: COMPOUND A, COMPOUND B and COMPOUND C stock solutions at 10 mM were prepared in dimethyl sulfoxide (DMSO). Further dilution with DMSO was made to prepare 2.0 mM. The working solutions of 50 μM was prepared with 20% MeOH/water. […] Prior to use, the stock solutions were brought to room temperature and thoroughly mixed and prepared same as described above.
Incubations were conducted in 96-well plate format. The time points defined for this study are 0, 5, 15, 30 and 60 minutes.
An appropriate volume of plasma from test species were added to a 96-deep well plate, and COMPOUND A, COMPOUND B and COMPOUND C working solution was spiked into the plasma in duplicate to achieve a final concentration of 2.0 μM. For positive controls, the rat plasma was spiked with enalapril, the dog plasma spiked with bisacodyl and the human plasma was spiked with propantheline. All spiked plasma sample plates were incubated in a water bath at 37° C. with shaking.
At the end of each time point, samples were immediately quenched with three volume of cold quenching solution.
A study was conducted to examine the plasma stability. Test Compounds: COMPOUND D, COMPOUND E, and Viloxazine. Positive controls: Enalapril and Propantheline.

A short description of data set [3]: Metabolic stability in rat liver S9. The note with it: for half-life: Sprague Dawley (rat), rat, dog and human liver S9 incubations (summary over species), read-out: half-lives; for half-life / half-life at 1 μM / microsomal CLint at 1 μM: pH 7.2. The format is in vitro ADME, Sprague Dawley rat. Also on record: half-life: dose or concentration left out as unconfirmed. The method, then:
Incubation Buffer (PBK): 50 mM potassium phosphate buffer was prepared from 1 M potassium phosphate buffer, pH 7.2. […] The dilution of […] was prepared by 90% methanol/10% DMSO, then 10 μM working solutions were prepared by diluting the 0.1 mM intermediates with 50 mM PBK. […] Prior to use, the stock solutions were brought to room temperature and thoroughly mixed. […] Cofactors Solutions: the mixture of cofactors solution was made at 10 mM of NADPH and 10 mM of UDPGA in PBK buffer.
The incubation was carried out in 96-well plates. The liver S9 working solutions were added to 96-well plates (80 μL/well) in duplicate. […] Reaction was initiated by adding cofactor mixture 10 μL/well. The plates were incubated at 37° C. in a water bath with shaking. […] The final organic solvent content in the incubation was ≤1%.
At specified time points, i.e., 5, 10, 20, 30 and 60 minutes, NCF60 (without adding NADPH (Nicotinamide-adenine dinucleotide phosphate, reduced form) and UDPGA (Uridine 5′-diphosphoglucuronic acid trisodium salt) replaced with PBK buffer reaction was stopped by adding three volumes of stop solution. The time zero (To) samples were prepared by adding three volumes of stop solution to liver S9 samples, followed by addition of test article or control, and cofactor mixture solution 10 μL/well.
Subsequently, 100 μL of supernatant.
Positive controls: 7-ethoxycoumarin and 7-hydroxycoumarin.

[4] abbreviates: Sprague Dawley, rat liver S9, 1 μM.
The mark [5] stands for this setting: Sprague Dawley, rat liver S9, 1 μM, read-out: CLint(LS9).
[6] abbreviates: rat liver S9, 1 μM, NCF60 (no cofactors, 60 min).
[7] abbreviates: 1 μM in SD Rat liver S9 fractions.
The mark [8] stands for this setting: Sprague-Dawley, 1 μM in SD Rat liver S9 fractions.
Where [9] appears, read: Sprague-Dawley, 1 μM in SD Rat liver S9 fractions, read-out: CLint(mic.).

The structures appear in SMILES notation. Where “and” joins values, the source holds several entries; their conditions need not be identical. Identical values can stand only once. Like-named read-outs stand apart in the source and are kept apart here. Some results are limits rather than exact numbers.

A word on the IC50: it is the concentration that inhibits the measured activity by half. Regarding `CCOc1ccccc1OC[C@@H]1CN(C(=O)OC(OC(=O)[C@H](N)C(C)C)C(C)C)CCO1` (some centres unmarked) [COMPOUND C], the “Clinical observation (tolerability)” value in data set [1] is on record as “well tolerated”. For the same compound, in data set [1], the “plasma concentration of the analog itself” value is recorded as “well above LLOQ”. The Tlast in data set [1] (female beagle dogs) and in data set [1] (male beagle dogs) was 16.0 h throughout. Besides, in “Enzyme and uptake assays”, the IC50 came out at 1800 nM. For the same compound, the half-life at 2 μM in data set [2] is above 187 min. For the same compound, the “% Remaining” value was 100% in data set [2] (0 min); 92.3% in data set [2] (5 min); 88.3% in data set [2] (15 min); 86.1% in data set [2] (30 min); 84.4% in data set [2] (60 min); 100% in data set [3] (rat liver S9, 1 μM, 0 min). For the same compound, the “% Remaining” value in data set [3] (rat liver S9, 1 μM, 5 min) was 19%; in data set [3] (rat liver S9, 1 μM, 10 min), 13%; in data set [3] (rat liver S9, 1 μM, 20 min), 5.6%; in data set [3] (rat liver S9, 1 μM, 30 min) it was 3.5%; in data set [3] (rat liver S9, 1 μM, 60 min), 0.39% and 0.4%; in data set [3] (setting [6]), 3.5%. Besides, the “Analyte Peak area/IS Peak area Mean (N = 2)” value in data set [2] (0 min) was found to be 1.99; in data set [2] (5 min), 1.84; in data set [2] (15 min), 1.76; in data set [2] (30 min) it was 1.71; in data set [2] (60 min), 1.68. Moreover, the half-life in data set [3] was in the range of 4 to 12 min. In addition, the half-life at 1 μM in data set [3] (setting [4]) came to 8.53 min. Also, the microsomal CLint at 1 μM in data set [3] (setting [5]) is 163 µL/min/mg. Also, the “Analyte Peak area/IS Peak area Mean × 100 (n = 2)” value came to 6.55 in data set [3] (rat liver S9, 1 μM, 0 min); 1.24 in data set [3] (rat liver S9, 1 μM, 5 min); 0.834 in data set [3] (rat liver S9, 1 μM, 10 min); 0.365 in data set [3] (rat liver S9, 1 μM, 20 min); 0.228 in data set [3] (rat liver S9, 1 μM, 30 min); 0.026 in data set [3] (rat liver S9, 1 μM, 60 min). Also, the “Analyte Peak area/IS Peak area Mean × 100 (n = 2)” value in data set [3] (setting [6]) is 0.228.

Turning to `CCOc1ccccc1OCC1CN(C(=O)OC(OC(=O)[C@@H](N)C(C)C)C(C)C)CCO1` (some centres unmarked) [COMPOUND E], the IC50 in the data set “Enzyme and uptake assays” came to 2600 nM. In data set [2], the “% Remaining at 60 min (Mean)” value is on record as 90.3%. Besides, the “% Remaining at 60 min” value in data set [3] (setting [7]) is given as 0.00%. The compound further gave a half-life at 1 μM in data set [3] (setting [8]) of 4.8 min. For the same compound, in data set [3] (setting [9]), the microsomal CLint at 1 μM worked out at 290 µL/min/mg.

`CCOc1ccccc1OCC1CN(C(=O)OC(C)OC(=O)[C@H](N)C(C)C)CCO1` (some centres unmarked) [COMPOUND D]: the IC50 in “Enzyme and uptake assays” turned out to be 870 nM. In addition, in data set [2], the “% Remaining at 60 min (Mean)” value was 77.1%. The “% Remaining at 60 min” value in data set [3] (setting [7]) came out at 0.48%. Also, the half-life at 1 μM in data set [3] (setting [8]) is 9.4 min. Moreover, the microsomal CLint at 1 μM in data set [3] (setting [9]) turned out to be 148 µL/min/mg.

As to `CCOc1ccccc1OC[C@@H]1CN(C(=O)OC(C)OC(=O)[C@@H](N)C(C)C)CCO1` (some centres unmarked) [COMPOUND A], the “Clinical observation (tolerability)” value in data set [1] was “well tolerated”. For the same compound, the “plasma concentration of the analog itself” value in data set [1] is given as “mostly below the LLOQ”. Further, in “Enzyme and uptake assays”, the IC50 was determined as 390 nM. The half-life at 2 μM in data set [2] was found to be 94.9 min. Also, the “% Remaining” value was 100% in data set [2] (0 min); 107% in data set [2] (5 min); 93.1% in data set [2] (15 min); 80.8% in data set [2] (30 min); 100% in data set [3] (rat liver S9, 1 μM, 0 min); 6.3% in data set [3] (rat liver S9, 1 μM, 5 min). Moreover, the “% Remaining” value came out at 5.4% in data set [3] (rat liver S9, 1 μM, 10 min); 3.4% in data set [3] (rat liver S9, 1 μM, 20 min); 1.6% in data set [3] (rat liver S9, 1 μM, 30 min); 0.25% in data set [3] (rat liver S9, 1 μM, 60 min); 2.2% in data set [3] (setting [6]). The “Analyte Peak area/IS Peak area Mean (N = 2)” value in data set [2] (0 min) came to 2.31; in data set [2] (5 min) it was 2.46; in data set [2] (15 min), 2.15; in data set [2] (30 min) it was 1.86; in data set [2] (60 min), 1.57. Besides, the half-life in data set [3] was 4 to 12 min. In data set [3] (setting [4]), this compound yielded a half-life at 1 μM of 8.61 min. Also, the microsomal CLint at 1 μM in data set [3] (setting [5]) stood at 161 µL/min/mg. The “Analyte Peak area/IS Peak area Mean × 100 (n = 2)” value in data set [3] (rat liver S9, 1 μM, 0 min) stood at 10.7; in data set [3] (rat liver S9, 1 μM, 5 min), 0.669; in data set [3] (rat liver S9, 1 μM, 10 min), 0.574; in data set [3] (rat liver S9, 1 μM, 20 min), 0.362; in data set [3] (rat liver S9, 1 μM, 30 min) it was 0.171; in data set [3] (rat liver S9, 1 μM, 60 min) it was 0.026. Further, the “Analyte Peak area/IS Peak area Mean × 100 (n = 2)” value in data set [3] (setting [6]) is 0.237.

Regarding `CCOc1ccccc1OC[C@@H]1CN(C(=O)OC(OC(=O)[C@@H](N)C(C)C)C(C)C)CCO1` (some centres unmarked) [COMPOUND B], the “Clinical observation (tolerability)” value in data set [1] was “well tolerated”. The “plasma concentration of the analog itself” value in data set [1] is listed as “mostly below the LLOQ”. The IC50 in the data set “Enzyme and uptake assays” came to 1900 nM. The half-life at 2 μM in data set [2] is above 187 min. Besides, the “% Remaining” value in data set [2] (0 min) amounted to 100%; in data set [2] (5 min), 90.6%; in data set [2] (15 min), 94.5%; in data set [2] (30 min), 87.1%; in data set [2] (60 min), 91.5%; in data set [3] (rat liver S9, 1 μM, 0 min), 100%. Moreover, the “% Remaining” value in data set [3] (rat liver S9, 1 μM, 5 min) was 6.8%; in data set [3] (rat liver S9, 1 μM, 10 min), 4.6%; in data set [3] (rat liver S9, 1 μM, 20 min) it was 2.3%; in data set [3] (rat liver S9, 1 μM, 30 min) it was 0.2%; in data set [3] (rat liver S9, 1 μM, 60 min), 0.08% and 0.1%; in data set [3] (setting [6]) it was 0.4%. In addition, the “Analyte Peak area/IS Peak area Mean (N = 2)” value in data set [2] (0 min) is 1.90; in data set [2] (5 min), 1.72; in data set [2] (15 min), 1.79; in data set [2] (30 min), 1.65; in data set [2] (60 min), 1.73. For the same compound, the half-life in data set [3] was in the range of 4 to 12 min. In data set [3] (setting [4]), the half-life at 1 μM amounted to 4.09 min. Further, the microsomal CLint at 1 μM in data set [3] (setting [5]) was determined as 339 µL/min/mg. The “Analyte Peak area/IS Peak area Mean × 100 (n = 2)” value is on record as 7.71 in data set [3] (rat liver S9, 1 μM, 0 min); 0.524 in data set [3] (rat liver S9, 1 μM, 5 min); 0.351 in data set [3] (rat liver S9, 1 μM, 10 min); 0.174 in data set [3] (rat liver S9, 1 μM, 20 min); 0.019 in data set [3] (rat liver S9, 1 μM, 30 min); 0.006 in data set [3] (rat liver S9, 1 μM, 60 min). In addition, in data set [3] (setting [6]), the “Analyte Peak area/IS Peak area Mean × 100 (n = 2)” value is given as 0.029.

These data come from patent US20240343699A1, “DERIVATIVES OF SUBSTITUTED MORPHOLINES AND USES THEREOF” (Supernus Pharmaceuticals, Inc., priority 2023, published 2024).
